Consider one compound from US20030224525A1, “Enhanced photophysics of conjugated polymers” (The University of Chicago, priority 2002, published 2003).

The data set in a line: Particle size by dynamic light scattering. The data set is classed as physicochemical. As to conditions: in solution; complex 1:1 mole ratio, filtered with 100 nanometer filter. The procedure: More striking results come from fluorescence microscopy of the polymer-surfactant complex (1:1 mole ratio). After filtration with a 100 nanometer filter, the 5×10^−5 M complex solution is perfectly clear and suitable for spectroscopic studies. However, when spread on a glass substrate (microscope slide) with a cover glass, incubated for 10 minutes at room temperature and observed under a 100×oil immerse objective, the polymer-surfactant complex consists of bright, uniform and well-defined nano-sized particles (FIG. 2A). […] The particle size was measured using dynamic light scattering methods. […] As a comparison, the measured particle size in pure MPS-PPV solution is about 9 nm with a broad gaussian distribution; while pure DOTAP solution contains particles ( presumably lipid bilayer assemblies) with a mean diameter of 57 nm, consistent with the literature value. The sizes of the polymer and complex particles are consistent with the results from fluorescence correlation spectroscopic experiments.
Since the spectra in FIG. 1 indicated the possibility of a second complex component in the polymer-surfactant mixture, the solution emission was examined using a shorter excitation wavelength (400 nm). As shown in FIG. 3 (inset A), the solution does container a very low concentration of species emitting at 465 nm. […]

On to `CCCCCCCC/C=C\CCCCCCCC(=O)OCC(C[N+](C)(C)C)OC(=O)CCCCCCC/C=C\CCCCCCCC.[Cl-]` (stereo not shown) [DOTAP, N-[1-(2,3-Dioleoyloxy)propyl]-N,N,N,-trimethylammonium chloride], for which the average particle size is on record as 57 nm.
